Several values for one entry are separate records, joined by “and”; a condition that tells them apart may be missing. Identical values can stand only once.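 Cells were grown in 96-well plates and exposed to each compound for 48 hours at five concentrations; endpoints were interpolated linearly between bracketing concentrations, or set to the highest concentration if not reached. GI50 marks 50% less growth. The concentration for full growth arrest is given as TGI.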
Legend:
Assay in all cases: NCI-60 cell line screen, 48 h
SNB-19 CNS = system: SNB-19 CNS
ACHN renal = system: ACHN renal
MCF7 breast = system: MCF7 breast
IGROV1 ovarian = system: IGROV1 ovarian
UACC-62 melanoma = system: UACC-62 melanoma
U251 CNS = system: U251 CNS
CAKI-1 renal = system: CAKI-1 renal
HCT-15 colon = system: HCT-15 colon
HOP-62 NSCLC = system: HOP-62 NSCLC
MDA-MB-231 breast = system: MDA-MB-231 breast

| SMILES | TGI (SNB-19 CNS) | TGI (ACHN renal) | TGI (MCF7 breast) | TGI (IGROV1 ovarian) | TGI (UACC-62 melanoma) | TGI (U251 CNS) | TGI (CAKI-1 renal) | TGI (HCT-15 colon) | TGI (HOP-62 NSCLC) | TGI (MDA-MB-231 breast) | GI50 (SNB-19 CNS) | GI50 (ACHN renal) | GI50 (MCF7 breast) | GI50 (IGROV1 ovarian) | GI50 (UACC-62 melanoma) | GI50 (U251 CNS) | GI50 (CAKI-1 renal) | GI50 (HCT-15 colon) | GI50 (HOP-62 NSCLC) | GI50 (MDA-MB-231 breast) |
| --- | --- | --- | --- | --- | --- | --- | --- | --- | --- | --- | --- | --- | --- | --- | --- | --- | --- | --- | --- | --- |
| O=C1CC2OCC=C3CN4CCC5(C(=O)O)C(N1)C2C3CC45 (stereo not drawn) | > 100 µM | > 100 µM | > 100 µM | > 100 µM | > 100 µM | > 100 µM | > 100 µM | > 100 µM | > 100 µM | > 100 µM |  |  |  |  |  |  |  |  |  |  |
| Nc1ccn(C2CC3OCC3O2)c(=O)n1 (stereo not drawn) | > 100 µM | > 100 µM | > 100 µM | > 100 µM | > 100 µM | > 100 µM | > 100 µM | > 100 µM | > 100 µM | > 100 µM |  |  |  |  |  |  |  |  |  |  |
| CC(C)OP(=O)(OC(C)C)/C(C#N)=C/c1c[nH]c2ccccc12 | > 100 µM | > 100 µM | > 100 µM | > 100 µM | > 100 µM | > 100 µM | > 100 µM | > 100 µM | > 100 µM | > 100 µM |  |  |  |  |  |  |  |  |  |  |
| NC1=C(O)C(=O)C(c2c[nH]c3ccc(OCc4ccccc4)cc23)O1 (stereo not drawn) | > 100 µM | > 100 µM | > 100 µM | > 100 µM | > 100 µM | > 100 µM | > 100 µM | > 100 µM | > 100 µM | > 100 µM |  |  |  |  |  |  |  |  |  |  |
| Cc1c(C2CCSc3ccccc3N2)sc2ccccc12 (stereo not drawn) | > 100 µM | > 100 µM | > 100 µM | > 100 µM | > 100 µM | > 100 µM | > 100 µM | > 100 µM | > 100 µM | > 100 µM |  |  |  |  |  |  |  |  |  |  |
| CCCC(=O)OC(OC(=O)CCC)c1ccc([N+](=O)[O-])o1 | > 100 µM | 49.9 µM | 35.4 µM | 28.3 µM | 49.1 µM | > 100 µM | 38.4 µM | 43.4 µM | > 100 µM | 68 µM |  |  |  |  |  |  |  |  |  |  |
| O=C1C=CC(=O)c2c(O)c(N(CCCl)CCCl)c(Cl)c(O)c21 | > 10 µM | 5.6 µM | > 8.33 µM | > 7.99 µM | > 7.71 µM | > 9.09 µM | 6.51 µM | > 8.58 µM | > 10 µM | 6.75 µM |  |  |  |  |  |  |  |  |  |  |
| CNC(=O)c1cc(-c2ccc(F)cc2)cc(-c2ccc(S(=O)(=O)N3CCCC3)cc2)c1N | > 25 µM | > 25 µM | > 25 µM | > 25 µM | > 25 µM | > 25 µM | > 25 µM | > 25 µM | > 25 µM | > 25 µM | > 25 µM | 21.5 µM | 8.79 µM | > 25 µM | > 23.1 µM | 15.1 µM | 12.6 µM | 9.68 µM | > 25 µM | > 20.8 µM |
| CCN(CC)CCNc1ccc([N+](=O)[O-])c2nc3ccc(OC)cc3c(N)c12 | 3.29 µM | 2.89 µM | 1.31 µM | 1.21 µM | 3.61 µM | 3.06 µM | 3.85 µM | 2.68 µM | 3.74 µM | 3.25 µM |  |  |  |  |  |  |  |  |  |  |
| C[C@@H]1Cc2c(ccc3[nH]ncc23)[C@@H](c2ccc(NC3CN(CCCF)C3)cn2)N1CC(F)(F)F | > 100 µM | 53 µM | 16.1 µM | 62.4 µM | 30.5 µM | 36.7 µM | 37.1 µM | 35 µM | 34.8 µM | 34.5 µM | 28.3 µM | 22.2 µM | < 0.01 µM | 20.2 µM | 15.2 µM | 15.8 µM | 15.9 µM | 16.7 µM | 15.3 µM | 17 µM |
| Cc1nc2sc(C(=O)Nc3ccccc3)c(N)c2cc1C(=O)c1ccccc1 | > 50 µM | > 50 µM | > 50 µM | > 50 µM | > 50 µM | > 50 µM | > 50 µM | > 50 µM | > 50 µM | > 50 µM | 2 µM | 4.52 µM | 1.73 µM | 4.11 µM | 2.12 µM | 2.09 µM | 3.29 µM | 2.19 µM | 3.33 µM | 3.04 µM |
| COC(=O)Nc1nc2ccc(C(=O)c3cccs3)cc2[nH]1 | 42.5 µM and > 100 µM | 87.5 µM and > 100 µM | 46.2 µM and > 100 µM | 36.5 µM and > 100 µM | 65.4 µM and > 100 µM |  | 56.3 µM and > 100 µM |  | 32.8 µM and > 100 µM | 79.2 µM and > 100 µM | 0.359 µM | 1.24 µM | 0.0618 µM | 0.594 µM | 0.189 µM | 0.147 µM | 0.232 µM | 0.106 µM | 1.11 µM | 0.595 µM |
| N/C(CC(=O)NOC(=O)c1ccccc1)=N/OC(=O)c1ccccc1 | > 100 µM | > 100 µM | 92.4 µM | 31.7 µM | > 100 µM | > 100 µM | > 100 µM | > 100 µM | > 100 µM | > 100 µM |  |  |  |  |  |  |  |  |  |  |
| O=C(/C=C/c1ccc(Cl)cc1Cl)c1ccc(Cl)cc1Cl | > 100 µM | 47.9 µM | > 24 µM | 55.8 µM | 12.1 µM | 34.1 µM | > 92.8 µM | 31 µM | > 68.9 µM | 27 µM | 29 µM | 22.1 µM | 7.88 µM | 22.3 µM | 1.52 µM | 14.1 µM | 36 µM | 14.4 µM | 26.1 µM | 4.5 µM |
| c1ccc(-c2cc3n4c(-c5ccccc5)nn(-c5ccccc5)c4cnc-3n2)cc1 | > 50 µM | > 50 µM | > 50 µM | > 50 µM | > 50 µM | > 50 µM | > 50 µM | > 50 µM | > 50 µM | > 50 µM | 12.5 µM | > 50 µM | 4.26 µM | > 50 µM | > 50 µM | 7.85 µM | 15.1 µM | > 50 µM | 13.2 µM | 16.4 µM |
| N=C1C=C(N)C(=O)c2ccccc21 | 1.97 µM | 0.369 µM | 0.391 µM | 0.42 µM | 0.352 µM | 0.339 µM | 0.379 µM | 0.578 µM | 0.435 µM | 0.554 µM | 0.598 µM | 0.182 µM | 0.188 µM | 0.203 µM | 0.181 µM | 0.183 µM | 0.187 µM | 0.225 µM | 0.204 µM | 0.18 µM |
| CN(C)Cc1cc(C(C)(C)C)cc(CN(C)C)c1O | > 100 µM | > 100 µM | > 100 µM | > 100 µM | > 100 µM | > 100 µM | > 100 µM | > 100 µM | > 100 µM | > 100 µM |  |  |  |  |  |  |  |  |  |  |
| CS(=O)(=O)CCNCc1ccoc1-c1ccc2ncnc(Nc3ccc(OCc4ccccc4)cc3)c2c1 | > 25 µM | > 25 µM | > 25 µM | > 25 µM | > 25 µM | > 25 µM | > 25 µM | > 25 µM | > 25 µM | > 25 µM | > 25 µM | > 25 µM | 8.54 µM | > 17 µM | > 25 µM | > 25 µM | 1.78 µM | > 25 µM | > 25 µM | > 25 µM |
| CCOC(=O)N(O)c1ccc(/C=C/c2ccccc2)cc1 | > 100 µM | > 93.7 µM | 14.6 µM | 3.21 µM | 3.07 µM | 29.2 µM | 21.4 µM | 37.4 µM | > 59 µM | 39.9 µM | 18.5 µM | 8.38 µM | 0.341 µM | 0.319 µM | 0.47 µM | 4.72 µM | 2.7 µM | 9.18 µM | 7.45 µM | 9.39 µM |
| CC[C@@H](C(=O)[C@@H](C)[C@@H](O)[C@H](C)[C@@H]1O[C@@H]([C@@H](CC)C(=O)O)CC[C@@H]1C)[C@H]1O[C@]2(C=C[C@@H](O)[C@]3(CC[C@@](C)([C@H]4CC[C@](O)(CC)[C@H](C)O4)O3)O2)[C@H](C)C[C@@H]1C | 5.97 µM | 49.2 µM | 13.1 µM | > 84.7 µM | 2.33 µM | 8.91 µM | 44.2 µM | > 100 µM | 16.9 µM | 7.68 µM | 0.689 µM | 1.39 µM | 0.315 µM | 2.05 µM | 1.04 µM | 0.149 µM | 1.61 µM | 0.912 µM | 1.12 µM | 0.732 µM |
| CNc1nc(-c2ccc3c(N)n[nH]c3c2)cc(N2C[C@@H](C(=O)NC3CCCCC3)CC[C@H]2C)n1 | 18 µM | 19.9 µM | 11.2 µM | 14.9 µM | 16.3 µM | 17.9 µM | 20.6 µM | 19.4 µM | 17.9 µM | 15.7 µM | 4.42 µM | 2.81 µM | 0.996 µM | 2.45 µM | 0.858 µM | 3.88 µM | 1.14 µM | 4.33 µM | 3.26 µM | 2.61 µM |
| COc1cc2c(=O)n(CC3CCCCC3)c3c4cc[nH]c4ncc3c2cc1OC | 19.5 µM | 10.4 µM | > 50 µM | 13.8 µM | > 50 µM | 15.7 µM | 7.39 µM | > 50 µM | 11.2 µM | 7.59 µM | 5.16 µM | 2.16 µM | 0.64 µM | 0.891 µM | 6.01 µM | 4.85 µM | 1.19 µM | 1.69 µM | 2.54 µM | 1.13 µM |
